Earlier results in patent US5180744A, “Aralkyl-N-terminal amino hydroxy” (G. D. Searle & Co., priority 1991, dated 1993).
Square brackets hold non-standard residues; d marks the D form. Peptide text beside a SMILES is read from it. * marks the point of attachment. Sta = CC(C)C[C@H](N)[C@@H](O)CC(=O)O; Isovaleryl = CC(C)CC(=O)*

Test system: hog renin
Settings: after the injection of hog renin into nephrectomized rats

CC(C)CC(=O)N[C@H](C(=O)N[C@H](C(=O)N[C@@H](CC(C)C)[C@@H](O)CC(=O)N[C@@H](C)C(=O)N[C@@H](CC(C)C)[C@@H](O)CC(=O)O)C(C)C)C(C)C [pepstatin] (Isovaleryl-VV[Sta]A[Sta]-OH)
blood pressure in vivo: reduce blood pressure in vivo
